From the supplement of paper PMC13380429
Counter-ions that a name gives are not always drawn.

Key:
Settings in all cases: 72 h
Caco-2 [1] = experiment: cell viability relative to DMSO; higher = less toxic
U2OS [2] = experiment: as above
HepG2 [3] = experiment: as above
Caco-2 [4] = experiment: drug sensitivity score (DSS) for viability; higher = more toxic; extreme values may be limits of the assay
U2OS [5] = experiment: as above
HepG2 [6] = experiment: as above
Caco-2 [7] = experiment: relative viability EC50 (midpoint between 100% and the lowest measured viability); higher = less toxic
U2OS [8] = experiment: as above
HepG2 [9] = experiment: as above
Calu-3 [10] = experiment: cell viability relative to DMSO; higher = less toxic
Vero E6 [11] = experiment: as above
Calu-3 [12] = experiment: drug sensitivity score (DSS) for viability; higher = more toxic; extreme values may be limits of the assay
Vero E6 [13] = experiment: as above
Calu-3 [14] = experiment: relative viability EC50 (midpoint between 100% and the lowest measured viability); higher = less toxic
Vero E6 [15] = experiment: as above

SMILES | cell viability (Caco-2 [1]; 1 nM) [%] | cell viability (Caco-2 [1]; 10 nM) [%] | cell viability (Caco-2 [1]; 100 nM) [%] | cell viability (Caco-2 [1]; 1000 nM) [%] | cell viability (Caco-2 [1]; 10000 nM) [%] | cell viability (U2OS [2]; 1 nM) [%] | cell viability (U2OS [2]; 10 nM) [%] | cell viability (U2OS [2]; 100 nM) [%] | cell viability (U2OS [2]; 1000 nM) [%] | cell viability (U2OS [2]; 10000 nM) [%] | cell viability (HepG2 [3]; 1 nM) [%] | cell viability (HepG2 [3]; 10 nM) [%] | cell viability (HepG2 [3]; 100 nM) [%] | cell viability (HepG2 [3]; 1000 nM) [%] | cell viability (HepG2 [3]; 10000 nM) [%] | drug sensitivity score (Caco-2 [4]) | drug sensitivity score (U2OS [5]) | drug sensitivity score (HepG2 [6]) | relative viability EC50 (Caco-2 [7]) [µM] | relative viability EC50 (U2OS [8]) [µM] | relative viability EC50 (HepG2 [9]) [µM] | cell viability (Calu-3 [10]; 1 nM) [%] | cell viability (Calu-3 [10]; 10 nM) [%] | cell viability (Calu-3 [10]; 100 nM) [%] | cell viability (Calu-3 [10]; 1000 nM) [%] | cell viability (Calu-3 [10]; 10000 nM) [%] | cell viability (Vero E6 [11]; 1 nM) [%] | cell viability (Vero E6 [11]; 10 nM) [%] | cell viability (Vero E6 [11]; 100 nM) [%] | cell viability (Vero E6 [11]; 1000 nM) [%] | cell viability (Vero E6 [11]; 10000 nM) [%] | drug sensitivity score (Calu-3 [12]) | drug sensitivity score (Vero E6 [13]) | relative viability EC50 (Calu-3 [14]) [µM] | relative viability EC50 (Vero E6 [15]) [µM]
CC(=O)NNC(=O)N1Cc2ccccc2Oc2ccc(Cl)cc21 | 105 | 100 | 107 | 95.5 | 99.7 | 98.5 | 95.9 | 101 | 99.9 | 102 | 98.5 | 102 | 96.1 | 94 | 87.7 | 0 | 0 | 0.1 | > 10 | > 10 | > 10 | – | – | – | – | – | – | – | – | – | – | – | – | – | –
Cc1cccc(C(=O)NCN2CCN(c3ccccc3C#N)CC2)c1 | 95.3 | 103 | 89.1 | 104 | 104 | 98.1 | 103 | 97.2 | 101 | 101 | 105 | 96.6 | 96.9 | 101 | 94.5 | 0 | 0 | 0 | > 10 | > 10 | > 10 | – | – | – | – | – | – | – | – | – | – | – | – | – | –
Cc1oc2ccccc2c1CNC(=O)NCc1cccs1 | 103 | 106 | 98.4 | 96.9 | 96.6 | – | – | – | – | – | – | – | – | – | – | 0 | – | – | > 10 | – | – | 92.4 | 93.4 | 96.2 | 89.9 | 99.3 | 103 | 107 | 102 | 96.9 | 97.9 | 0 | 0 | > 10 | > 10
Cn1cc(/C=C2\C(=O)Nc3cccnc32)c2ccccc21 | 97.9 | 94.4 | 95.2 | 94 | 91.7 | 93.9 | 98.4 | 95.3 | 101 | 99.5 | – | – | – | – | – | 0 | 0 | – | > 10 | > 10 | – | 88.6 | 114 | 102 | 109 | 122 | 96 | 97.1 | 92.7 | 87 | 106 | 0 | 0 | > 10 | > 10
N#C[C@@H]1C[C@@H]2C[C@@H]2N1C(=O)[C@@H](N)C12CC3CC(CC(O)(C3)C1)C2 | 101 | 98.6 | 95.8 | 104 | 98.2 | 98.5 | 102 | 93.5 | 100 | 87.7 | – | – | – | – | – | 0 | 0 | – | > 10 | > 10 | – | 98.2 | 108 | 92.8 | 108 | 97.7 | 95.5 | 104 | 97.8 | 97.9 | 96.6 | 0 | 0 | > 10 | > 10
Nc1nccc(Oc2ccc(NC(=O)c3cn(COP(=O)(O)O)cc(-c4ccc(F)cc4)c3=O)cc2F)c1Cl | 97.2 | 96.8 | 94 | 94.5 | 90.2 | 97.9 | 103 | 98.7 | 104 | 106 | 104 | 102 | 108 | 99.8 | 35 | 0 | 0 | 3.6 | > 10 | > 10 | 3.15 | – | – | – | – | – | 106 | 103 | 105 | 97.5 | 102 | – | 0 | – | > 10
OC[C@H]1O[C@@H](n2cnc3c(N[C@H]4CCC[C@@H]4O)ncnc32)[C@H](O)[C@@H]1O | 103 | 99.3 | 104 | 101 | 107 | 99.4 | 100 | 98.6 | 97.1 | 102 | 86.2 | 84 | 95 | 102 | 94 | 0 | 0 | 0 | > 10 | > 10 | > 10 | – | – | – | – | – | 103 | 102 | 98.9 | 99 | 97.3 | – | 0 | – | > 10
N#C/C(=C\c1ccc(O)c(O)c1)C(=O)NCc1ccccc1 [AG-490] | 95.9 | 98.7 | 92.5 | 92.2 | 82.1 | 94.1 | 99.8 | 95.8 | 103 | 95.5 | 96.4 | 101 | 99.9 | 95 | 66.6 | 0.7 | 0 | 2.4 | > 10 | > 10 | – | 96.7 | 103 | 92.8 | 96.7 | 91.6 | 94.1 | 98.2 | 98.7 | 94.7 | 86.6 | 0 | 0.2 | > 10 | > 10
O=C(Nc1cccc(Br)c1)c1cccc(S(=O)(=O)N2CCCCCC2)c1 [AK-7] | 90.6 | 94.9 | 93.5 | 92.9 | 75.1 | 97.7 | 92.8 | 98.5 | 92.8 | 86.3 | 96.7 | 103 | 99.9 | 104 | 72.9 | 1.4 | 0 | 0.9 | > 10 | > 10 | – | 102 | 94 | 106 | 105 | 77 | 98.7 | 102 | 99.4 | 100 | 94.3 | 0.6 | 0 | > 10 | > 10
COc1ccnc2[nH]cc(C(=O)C(=O)N3CCN(C(=O)c4ccccc4)C[C@H]3C)c12 [BMS-806] | 99.3 | 99 | 96.1 | 108 | 107 | 93.3 | 104 | 95.1 | 105 | 100 | – | – | – | – | – | 0 | 0 | – | > 10 | > 10 | – | 105 | 108 | 107 | 110 | 99.3 | 107 | 102 | 102 | 105 | 99.9 | 0 | 0 | > 10 | > 10
O=S(=O)(NCCNC/C=C/c1ccc(Br)cc1)c1cccc2cnccc12 [H-89] | 99.9 | 103 | 98.7 | 99.9 | 89.6 | 101 | 96 | 102 | 97.2 | 90.7 | 95.5 | 96.4 | 91.9 | 102 | 74.7 | 0 | 0 | 0.8 | > 10 | > 10 | – | 79.7 | 100 | 87.6 | 103 | 118 | 96.8 | 97.6 | 100 | 97 | 82.9 | 0 | 0.7 | > 10 | > 10
O=C(O)COc1ccc(OCCNC[C@H](O)COc2ccccc2)cc1 [ICI-215,001] | 98.1 | 111 | 103 | 103 | 116 | – | – | – | – | – | 106 | 104 | 104 | 104 | 97.1 | 0 | – | 0 | > 10 | – | > 10 | – | – | – | – | – | 106 | 97.5 | 101 | 104 | 92.6 | – | 0 | – | > 10
CCOCOC[C@H](C[C@H](C)C(=O)NO)NC(=O)c1ccc(Oc2ccccc2)cc1 [ONO-4817] | 104 | 104 | 100 | 103 | 87.6 | 98.1 | 103 | 97.1 | 104 | 92.6 | – | – | – | – | – | 0 | 0 | – | > 10 | > 10 | – | 92.3 | 85.3 | 97.6 | 95.4 | 89.2 | 103 | 102 | 103 | 101 | 91.5 | 0 | 0 | > 10 | > 10
O=C(/C=C/c1ccc2ccccc2n1)c1ccncc1 [PFK-015] | 93.3 | 96.3 | 95.8 | 90.6 | 29.7 | 93 | 94.8 | 95.4 | 94 | 0 | 106 | 89.6 | 110 | 85 | 0.1 | 5.5 | 6.4 | 8 | 2.09 | 2.69 | 1.99 | 107 | 105 | 88 | 97 | 59.2 | 101 | 94.9 | 98 | 94.1 | 4.2 | 2.5 | 6.2 | – | 2.68
CC(C)C[C@H](CN)CC(=O)O [PREGABALIN] | 128 | 122 | 95 | 104 | 82.6 | 94.5 | 102 | 98.9 | 98.2 | 98.2 | 105 | 87.3 | 106 | 103 | 98.9 | 0.3 | 0 | 0 | > 10 | > 10 | > 10 | – | – | – | – | – | 93.5 | 105 | 106 | 103 | 100 | – | 0 | – | > 10
CN[C@H]1CC[C@@H](c2ccc(Cl)c(Cl)c2)c2ccccc21 [SERTRALINE HYDROCHLORIDE] | 99.2 | 103 | 95.9 | 102 | 84.4 | 103 | 99.1 | 93 | 100 | 81.5 | 102 | 108 | 98.1 | 112 | 79.2 | 0.2 | 0.5 | 0.4 | > 10 | > 10 | > 10 | 102 | 105 | 104 | 103 | 58.3 | 98.5 | 97.4 | 102 | 93.6 | 77.8 | 1.9 | 1.6 | – | > 10
Cn1c(COP(=O)(NCCBr)NCCBr)cnc1[N+](=O)[O-] [TH-302] | 107 | 94.5 | 98.6 | 97.7 | 89 | 103 | 105 | 99.9 | 105 | 108 | 97.6 | 97 | 118 | 103 | 81.3 | 0 | 0 | 0.4 | > 10 | > 10 | > 10 | – | – | – | – | – | 101 | 100 | 98.8 | 93.1 | 97.5 | – | 0 | – | > 10
